Laboratory results reported in ChEMBL document CHEMBL3885861, “Open TG-GATES”.

Species on record: Rattus norvegicus
Test: Open TG-GATES - Regimen: Daily Repeat
Assay type: toxicity, organism-based, Sprague-Dawley
Design: regimen Daily Repeat, gender Male, age 6 weeks
Conditions: in vivo, po, 0 mg/kg, route gavage, dose level Control; for APTT / Bas / Eos / Fbg / Hb / Ht / Lym / MCH / MCHC / MCV / Mono / Neu / PT / Plat / RBC / Ret / WBC: tissue Blood; for KIDNEY_L / KIDNEY_R / KIDNEY_TOTAL: tissue Kidney; for LIVER: tissue Liver; for A/G / ALP / ALT / AST / BUN / CRE / Ca / Cl / DBIL / GLC / IP / K / LDH / Na / PL / RALB / TBIL / TC / TG / TP / gamma-GTP: tissue Plasma

## OCCOCCN1CCN(C(c2ccccc2)c2ccc(Cl)cc2)CC1 (configuration not stated) [HYDROXYZINE]
72 h, time 3 day
  TERMINAL_BW: 230.9 g
  APTT: 15.5 s
  Bas: 0%
  Eos: 1%
  Fbg: 263.6 mg/dL
  Hb: 12.9 g/dL
  Ht: 39%
  Lym: 74.6%
  MCH: 21.1 pg
  MCHC: 33.1%
  MCV: 63.9 fL
  Mono: 3.2%
  Neu: 20.6%
  PT: 15.7 s
  Plat: 117.4 x10_4/uL
  RBC: 610.4 x10_4/ul
  Ret: 7.5%
  WBC: 77.5 x10_2/uL
  KIDNEY_L: 1 g
  KIDNEY_R: 1 g
  KIDNEY_TOTAL: 1.9 g
  LIVER: 11.1 g
  A/G: 0.9
  ALP: 1652.8 IU/L
  ALT: 46.2 IU/L
  AST: 68.8 IU/L
  BUN: 16.2 mg/dL
  CRE: 0.2 mg/dL
  Ca: 10.9 mg/dL
  Cl: 105.8 meq/L
  DBIL: 0.012 mg/dL
  GLC: 186.8 mg/dL
  IP: 8.1 mg/dL
  K: 4 meq/L
  LDH: 91.8 IU/L
  Na: 143.2 meq/L
  PL: 148.4 mg/dL
  RALB: 2.7 g/dL
  TBIL: 0.052 mg/dL
  TC: 73 mg/dL
  TG: 90 mg/dL
  TP: 5.7 g/dL
  gamma-GTP: 0.8 IU/L
[…], time 7 day
  TERMINAL_BW: 263.6 g
  APTT: 16.8 s
  Bas: 0%
  Eos: 1%
  Fbg: 282.2 mg/dL
  Hb: 13.6 g/dL
  Ht: 40.9%
  Lym: 79.2%
  MCH: 21.3 pg
  MCHC: 33.3%
  MCV: 63.9 fL
  Mono: 2.4%
  Neu: 16.4%
  PT: 15.4 s
  Plat: 113.3 x10_4/uL
  RBC: 639.4 x10_4/ul
  Ret: 6.1%
  WBC: 82.1 x10_2/uL
  KIDNEY_L: 1.1 g
  KIDNEY_R: 1.1 g
  KIDNEY_TOTAL: 2.3 g
  LIVER: 12.4 g
  A/G: 0.8
  ALP: 1624.6 IU/L
  ALT: 41.6 IU/L
  AST: 68.4 IU/L
  BUN: 16.6 mg/dL
  CRE: 0.2 mg/dL
  Ca: 11 mg/dL
  Cl: 105.2 meq/L
  DBIL: 0.016 mg/dL
  GLC: 193 mg/dL
  IP: 8 mg/dL
  K: 4 meq/L
  LDH: 68.4 IU/L
  Na: 143.2 meq/L
  PL: 166.6 mg/dL
  RALB: 2.7 g/dL
  TBIL: 0.054 mg/dL
  TC: 84 mg/dL
  TG: 103 mg/dL
  TP: 5.8 g/dL
  gamma-GTP: 0.8 IU/L
[…], time 14 day
  TERMINAL_BW: 336.5 g
  APTT: 16.9 s
  Bas: 0%
  Eos: 1%
  Fbg: 292 mg/dL
  Hb: 14.1 g/dL
  Ht: 41.5%
  Lym: 75.4%
  MCH: 20.7 pg
  MCHC: 34%
  MCV: 60.9 fL
  Mono: 2.8%
  Neu: 20.2%
  PT: 15.5 s
  Plat: 116.6 x10_4/uL
  RBC: 682.2 x10_4/ul
  Ret: 4.8%
  WBC: 105.1 x10_2/uL
  KIDNEY_L: 1.3 g
  KIDNEY_R: 1.3 g
  KIDNEY_TOTAL: 2.7 g
  LIVER: 15.4 g
  A/G: 0.8
  ALP: 1450 IU/L
  ALT: 40.6 IU/L
  AST: 62.6 IU/L
  BUN: 16.2 mg/dL
  CRE: 0.2 mg/dL
  Ca: 10.6 mg/dL
  Cl: 103.8 meq/L
  DBIL: 0.02 mg/dL
  GLC: 190.2 mg/dL
  IP: 7.4 mg/dL
  K: 4 meq/L
  LDH: 94.6 IU/L
  Na: 141.8 meq/L
  PL: 151.2 mg/dL
  RALB: 2.7 g/dL
  TBIL: 0.056 mg/dL
  TC: 73 mg/dL
  TG: 126.4 mg/dL
  TP: 6.1 g/dL
  gamma-GTP: 0.6 IU/L
[…], time 28 day
  TERMINAL_BW: 390.2 g
  APTT: 26.6 s
  Bas: 0.2%
  Eos: 1.2%
  Fbg: 295.8 mg/dL
  Hb: 15.1 g/dL
  Ht: 43.4%
  Lym: 79.6%
  MCH: 19.7 pg
  MCHC: 34.7%
  MCV: 56.7 fL
  Mono: 2%
  Neu: 16.4%
  PT: 15.9 s
  Plat: 105.6 x10_4/uL
  RBC: 766.4 x10_4/ul
  Ret: 2.4%
  WBC: 99.9 x10_2/uL
  KIDNEY_L: 1.4 g
  KIDNEY_R: 1.3 g
  KIDNEY_TOTAL: 2.8 g
  LIVER: 16.2 g
  A/G: 0.8
  ALP: 992.6 IU/L
  ALT: 36 IU/L
  AST: 61.2 IU/L
  BUN: 16.8 mg/dL
  CRE: 0.2 mg/dL
  Ca: 10.6 mg/dL
  Cl: 106 meq/L
  DBIL: 0.016 mg/dL
  GLC: 186.6 mg/dL
  IP: 6.6 mg/dL
  K: 4.1 meq/L
  LDH: 118.8 IU/L
  Na: 142.8 meq/L
  PL: 149.2 mg/dL
  RALB: 2.8 g/dL
  TBIL: 0.052 mg/dL
  TC: 68.2 mg/dL
  TG: 161.2 mg/dL
  TP: 6.3 g/dL
  gamma-GTP: 0.4 IU/L
